# Values quoted from earlier work as cited in paper PMC4258517 (Antiviral research, 2014).
# Experiments:
# SV40 = settings: 100 μM; ref Wright et al., 2009
# BKV = settings: HK2 cells, 15 μM; ref Wright et al., 2009
# patients with PML = settings: trial prematurely terminated, ref Clifford et al., 2013
# [1] = read-out: MTS assay IC50; cytotoxicity; ref Seguin et al., 2012b
# [2] = test system: SV40 large T antigen ATPase; settings: ref Seguin et al., 2012b
SMILES,reduction in SV40 DNA replication (SV40),reduction of BKV viral load (BKV),clinical trial outcome (patients with PML),IC50 [1] [µM],mechanism of inhibition on SV40 protein [2]
CC1=C(C(=O)OCc2ccccc2)C(c2ccc(-c3ccccc3)cc2)NC(=O)N1CCCCCC(=O)O (stereo not shown) [MAL2-11B],fivefold reduction,one log reduction,–,–,–
OC(c1cc(C(F)(F)F)nc2c(C(F)(F)F)cccc12)C1CCCCN1 (stereo not shown) [Mefloquine],–,–,lack of efficacy,–,–
Oc1c(Cl)cc(Cl)cc1Sc1cc(Cl)cc(Cl)c1O [bithionol],–,–,–,68,competitive
Oc1c(Cl)cc(Cl)c(Cl)c1Cc1c(O)c(Cl)cc(Cl)c1Cl [hexachlorophene],–,–,–,55,competitive
